In ChEMBL document CHEMBL1201862, “PubChem BioAssay data set” (2004):
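Grown in 96-well plates, cells were treated for 48 hours with each compound at five concentrations. Insufficient inhibition: endpoint recorded as highest concentration tested. GI50 marks 50% less growth.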 The source made the active and inactive calls. Rule as the data show it: active = GI50 up to about 1.1 µM and inactive = higher.

Tests used:
Test in all cases: growth of human tumour cells (NCI), 48 h
UACC-257 = tested on: UACC-257
KM12 = tested on: KM12
SNB-75 = tested on: SNB-75
K562 = tested on: K562
OVCAR-8 = tested on: OVCAR-8
Hs-578T = tested on: Hs-578T
SN12C = tested on: SN12C
RXF 393 = tested on: RXF 393
CCRF-CEM = tested on: CCRF-CEM
SF-268 = tested on: SF-268
BT-549 = tested on: BT-549
OVCAR-5 = tested on: OVCAR-5
M14 = tested on: M14
PC-3 = tested on: PC-3
SF-539 = tested on: SF-539
RPMI-8226 = tested on: RPMI-8226
SK-OV-3 = tested on: SK-OV-3
786-0 = tested on: 786-0
SF-295 = tested on: SF-295
HCT-116 = tested on: HCT-116
SW-620 = tested on: SW-620
EKVX = tested on: EKVX
NCI/ADR-RES = tested on: NCI/ADR-RES
DU-145 = tested on: DU-145
SK-MEL-5 = tested on: SK-MEL-5
HL-60 = tested on: HL-60
HOP-62 = tested on: HOP-62
SNB-19 = tested on: SNB-19
OVCAR-4 = tested on: OVCAR-4
TK-10 = tested on: TK-10
SR = tested on: SR
A549 = tested on: A549
SK-MEL-2 = tested on: SK-MEL-2
IGROV-1 = tested on: IGROV-1
MDA-MB-435 = tested on: MDA-MB-435
Malme-3M = tested on: Malme-3M
T47D = tested on: T47D
LOX IMVI = tested on: LOX IMVI
NCI-H226 = tested on: NCI-H226
COLO 205 = tested on: COLO 205
A498 = tested on: A498
U-251 = tested on: U-251
HOP-92 = tested on: HOP-92
MDA-MB-231 = tested on: MDA-MB-231
ACHN = tested on: ACHN
MOLT-4 = tested on: MOLT-4
NCI-H23 = tested on: NCI-H23
CAKI-1 = tested on: CAKI-1
SK-MEL-28 = tested on: SK-MEL-28
UO-31 = tested on: UO-31
OVCAR-3 = tested on: OVCAR-3
HT-29 = tested on: HT-29
NCI-H522 = tested on: NCI-H522
HCT-15 = tested on: HCT-15
NCI-H460 = tested on: NCI-H460
MDA-N = tested on: MDA-N
UACC-62 = tested on: UACC-62
HCC 2998 = tested on: HCC 2998
MCF7 = tested on: MCF7

With `COC1=CC(=O)C2=C(C1=O)[C@H]1CC[C@]3(C)[C@@H](OC(C)=O)CC[C@H]3[C@@H]1CC2` the GI50 (UACC-257) was 27.1 µM (inactive), the GI50 (KM12) was 60.3 µM (inactive) and the GI50 (SNB-75) was > 100 µM (inactive). The GI50 (K562) was 44.4 µM (inactive), the GI50 (OVCAR-8) was 23.9 µM (inactive) and the GI50 (Hs-578T) was 38.3 µM (inactive). The GI50 (SN12C) was 95.9 µM (inactive), the GI50 (RXF 393) was 61.2 µM (inactive) and the GI50 (CCRF-CEM) was 25.4 µM (inactive). For the same molecule, the GI50 (SF-268) was 42.1 µM (inactive), the GI50 (BT-549) was > 100 µM (inactive) and the GI50 (OVCAR-5) was 37.8 µM (inactive). The GI50 (M14) was > 100 µM (inactive), the GI50 (PC-3) was 39.9 µM (inactive) and the GI50 (SF-539) was 75.3 µM (inactive). The GI50 (RPMI-8226) was 31 µM (inactive), the GI50 (SK-OV-3) was > 100 µM (inactive) and the GI50 (786-0) was 55.6 µM (inactive). For the same molecule, the GI50 (SF-295) was 92.3 µM (inactive), the GI50 (HCT-116) was 29.3 µM (inactive) and the GI50 (SW-620) was > 100 µM (inactive). For the same molecule, the GI50 (EKVX) was 13.6 µM (inactive), the GI50 (NCI/ADR-RES) was 32.7 µM (inactive) and the GI50 (DU-145) was 67.8 µM (inactive). The GI50 (SK-MEL-5) was 21.4 µM (inactive), the GI50 (HL-60) was 16.4 µM (inactive) and the GI50 (HOP-62) was > 100 µM (inactive). For the same molecule, the GI50 (SNB-19) was > 100 µM (inactive), the GI50 (OVCAR-4) was 16.5 µM (inactive) and the GI50 (TK-10) was > 100 µM (inactive). The GI50 (SR) was 37.4 µM (inactive), the GI50 (A549) was > 100 µM (inactive) and the GI50 (SK-MEL-2) was 37.5 µM (inactive). For the same molecule, the GI50 (IGROV-1) was 25.2 µM (inactive), the GI50 (MDA-MB-435) was 19.2 µM (inactive) and the GI50 (Malme-3M) was 30.3 µM (inactive). For the same molecule, the GI50 (T47D) was 23.2 µM (inactive), the GI50 (LOX IMVI) was 15.1 µM (inactive) and the GI50 (NCI-H226) was 75.2 µM (inactive). The GI50 (COLO 205) was 44.2 µM (inactive), the GI50 (A498) was > 100 µM (inactive) and the GI50 (U-251) was 30.3 µM (inactive). The GI50 (HOP-92) was 7.93 µM (inactive), the GI50 (MDA-MB-231) was 17 µM (inactive) and the GI50 (ACHN) was 35.1 µM (inactive). For the same molecule, the GI50 (MOLT-4) was 20.2 µM (inactive), the GI50 (NCI-H23) was 40.3 µM (inactive) and the GI50 (CAKI-1) was 49 µM (inactive). For the same molecule, the GI50 (SK-MEL-28) was > 100 µM (inactive), the GI50 (UO-31) was > 100 µM (inactive) and the GI50 (OVCAR-3) was > 100 µM (inactive). The GI50 (HT-29) was 20.8 µM (inactive), the GI50 (NCI-H522) was > 100 µM (inactive) and the GI50 (HCT-15) was 49.5 µM. The GI50 (NCI-H460) was 71 µM (inactive) and the GI50 (MDA-N) was 28.6 µM (inactive).

For `O=S(=O)(O)c1cc(S(=O)(=O)O)c2c(Nc3ccnc4ccccc34)ccc(S(=O)(=O)O)c2c1`, the GI50 (UACC-257) was > 100 µM (inactive), the GI50 (KM12) was > 100 µM (inactive) and the GI50 (SNB-75) was > 100 µM (inactive). The GI50 (OVCAR-8) was > 100 µM (inactive), the GI50 (Hs-578T) was > 100 µM (inactive) and the GI50 (SN12C) was > 100 µM (inactive). For the same molecule, the GI50 (RXF 393) was > 100 µM (inactive), the GI50 (CCRF-CEM) was > 100 µM (inactive) and the GI50 (SF-268) was > 100 µM (inactive). The GI50 (BT-549) was > 100 µM (inactive), the GI50 (OVCAR-5) was > 100 µM (inactive) and the GI50 (M14) was > 100 µM (inactive). The GI50 (PC-3) was > 100 µM (inactive), the GI50 (SF-539) was > 100 µM (inactive) and the GI50 (RPMI-8226) was > 100 µM (inactive). The GI50 (SK-OV-3) was > 100 µM (inactive), the GI50 (786-0) was > 100 µM (inactive) and the GI50 (SF-295) was > 100 µM (inactive). For the same molecule, the GI50 (HCT-116) was > 100 µM (inactive), the GI50 (SW-620) was > 100 µM (inactive) and the GI50 (EKVX) was > 100 µM (inactive). The GI50 (NCI/ADR-RES) was > 100 µM (inactive), the GI50 (DU-145) was > 100 µM (inactive) and the GI50 (UACC-62) was > 100 µM (inactive). For the same molecule, the GI50 (SK-MEL-5) was > 100 µM (inactive), the GI50 (HL-60) was > 100 µM (inactive) and the GI50 (HOP-62) was > 100 µM (inactive). For the same molecule, the GI50 (HCC 2998) was > 100 µM (inactive), the GI50 (SNB-19) was > 100 µM (inactive) and the GI50 (OVCAR-4) was > 100 µM (inactive). For the same molecule, the GI50 (TK-10) was > 100 µM (inactive), the GI50 (A549) was > 100 µM (inactive) and the GI50 (SK-MEL-2) was > 100 µM (inactive). The GI50 (IGROV-1) was > 100 µM (inactive), the GI50 (MDA-MB-435) was > 100 µM (inactive) and the GI50 (Malme-3M) was > 100 µM (inactive). For the same molecule, the GI50 (T47D) was > 100 µM (inactive), the GI50 (LOX IMVI) was > 100 µM (inactive) and the GI50 (MCF7) was > 100 µM (inactive). The GI50 (NCI-H226) was > 100 µM (inactive), the GI50 (COLO 205) was > 100 µM (inactive) and the GI50 (A498) was > 100 µM (inactive). For the same molecule, the GI50 (U-251) was > 100 µM (inactive), the GI50 (MDA-MB-231) was > 100 µM (inactive) and the GI50 (ACHN) was > 100 µM (inactive). The GI50 (MOLT-4) was > 100 µM (inactive), the GI50 (NCI-H23) was > 100 µM (inactive) and the GI50 (CAKI-1) was > 100 µM (inactive). For the same molecule, the GI50 (SK-MEL-28) was > 100 µM (inactive), the GI50 (UO-31) was > 100 µM (inactive) and the GI50 (OVCAR-3) was > 100 µM (inactive). The GI50 (HT-29) was > 100 µM (inactive), the GI50 (NCI-H522) was > 100 µM (inactive) and the GI50 (HCT-15) was > 100 µM. The GI50 (NCI-H460) was > 100 µM (inactive) and the GI50 (MDA-N) was > 100 µM (inactive).
